Here are results for nine molecules from patent publication US9840508B2, “N-acyl-(3-substituted)-(8-methyl)-5,6-dihydro-[1,2,4]triazolo[4,3-a] pyrazines as selective NK-3 receptor antagonists, pharmaceutical composition, methods for use in NK-3 receptor-mediated disorders” (EUROSCREEN SA, priority 2013, dated 2017).

In series [1] the target is T1, human NK-3 receptor (Homo sapiens (Human), UniProt P29371). The experiment in a line: 3H-SB222200 binding competition assay with human NK-3 receptor. The procedure:
The affinity of compounds of the invention for the human NK-3 receptor was determined by measuring the ability of compounds of the invention to competitively and reversibly displace a well-characterized NK-3 radioligand in a concentration-dependent manner.
^3H-SB222200 Binding Competition Assay with Human NK-3 Receptor
The ability of compounds of the invention to inhibit the binding of the NK-3 receptor selective antagonist ^3H-SB222200 was assessed by an in vitro radioligand binding assay. Membranes were prepared from Chinese hamster ovary recombinant cells stably expressing the human NK-3 receptor. The membranes were incubated with 5 nM ^3H-SB222200 (ARC) in a HEPES 25 mM/NaCl 0.1M/CaCl2 1 mM/MgCl2 5 mM/BSA 0.5%/Saponin 10 μg/ml buffer at pH 7.4 and various concentrations of compounds of the invention. The amount of ^3H-SB222200 bound to the receptor was determined after filtration by the quantification of membrane associated radioactivity using the TopCount-NXT reader (Packard).

Series [2] concerns the target T1, human NK-3 receptor. The series can be described thus: Aequorin functional assay with human NK-3 receptor (antagonist testing). It counts as cell-based. The conditions noted are these: CHO cells expressing human NK-3 receptor; agonist NKA at EC80 (3 nM); read-out: Functional assay: Aequorin assay with human NK-3 receptor hNK-3 - AEQ (antagonist IC50). The procedure:
Aequorin Assay with Human NK-3 Receptor
Changes in intracellular calcium levels are a recognized indicator of G protein-coupled receptor activity. The efficacy of compounds of the invention to inhibit NKA-mediated NK-3 receptor activation was assessed by an in vitro Aequorin functional assay. Chinese Hamster Ovary recombinant cells expressing the human NK-3 receptor and a construct that encodes the photoproteinapoaequorin were used for this assay. In the presence of the cofactor coelenterazine, apoaequorin emits a measurable luminescence that is proportional to the amount of intracellular (cytoplasmic) free calcium.
The antagonist activity of compounds of the invention is measured following pre-incubation (3 minutes) of the compound (at various concentrations) with the cells, followed by addition of the reference agonist (NKA) at a final concentration equivalent to the EC80 (3 nM) and recording of emitted light (FDSS 6000 Hamamatsu) over the subsequent 90-second period. The intensity of the emitted light is integrated using the reader software. Compound antagonist activity is measured based on the concentration-dependent inhibition of the luminescence response to the addition of Neurokinin A.
The IC50 values shown in Table 2 indicate that compounds of the invention are potent NK-3 antagonist compounds.

Series [3] has as its target human NK-2 receptor (Homo sapiens (Human), UniProt P21452). The experiment in a line: Selectivity binding assay, human NK-2 ([125I]-Neurokinin A). Conditions: CHO cell membranes; 0.1 nM [125I]-Neurokinin A; read-out: hNK-2 (Ki). How it is done:
(§1) Selectivity of the compounds of the invention was determined over the other human NK receptors, namely NK-1 and NK-2 receptors.
The affinity of compounds of the invention for the NK-2 receptor was evaluated in CHO recombinant cells which express the human NK-2 receptor. Membrane suspensions were prepared from these cells. The following radioligand [^125I]-Neurokinin A (PerkinElmer Cat#NEX252) was used in this assay. Binding assays were performed in a 25 mM HEPES/1 mM CaCl2/5 mM MgCl2/0.5% BSA/10 μg/ml saponin, at pH 7.4. Binding assays consisted of 25 μl of membrane suspension (approximately 3.75 μg of protein/well in a 96 well plate), 50 μl of compound or reference ligand (Neurokinin A) at increasing concentrations (diluted in assay buffer) and 0.1 nM [^125I]-Neurokinin A. The plate was incubated 60 min at 25° C. in a water bath and then filtered over GF/C filters (Perkin Elmer, 6005174, presoaked in assay buffer without saponine for 2 h at room temperature) with a Filtration unit (Perkin Elmer). The radioactivity retained on the filters was measured by using the TopCount-NXT reader (Packard). Competition curves were obtained for compounds of the invention and the concentrations of compounds which displaced 50% of bound radioligand (IC50) were determined and then apparent inhibition constant Ki values were calculated by the following equation: Ki=IC50/(1+[L]/KD) where [L] is the concentration of free radioligand and KD is its dissociation constant at the receptor, derived from saturation binding experiments (Cheng and Prusoff, 1973).

Series [4] concerns the target human NK-1 receptor (Homo sapiens (Human), UniProt P25103). The experiment in a line: Selectivity binding assay, human NK-1 ([3H] substance P). The conditions noted are these: CHO cell membranes; 2 nM [3H] substance P; read-out: hNK-1 (Ki). The procedure: as §1
The affinity of compounds of the invention for the NK-1 receptor was evaluated in CHO recombinant cells which express the human NK-1 receptor. Membrane suspensions were prepared from these cells. The following radioligand: [^3H] substance P (PerkinElmer Cat#NET111520) was used in this assay. Binding assays were performed in a 50 mM Tris/5 mM MnCl2/150 mM NaCl/0.1% BSA at pH 7.4. Binding assays consisted of 25 μl of membrane suspension (approximately 5 μg of protein/well in a 96 well plate), 50 μl of compound or reference ligand (Substance P) at increasing concentrations (diluted in assay buffer) and 2 nM [^3H] substance P. The plate was incubated 60 min at 25° C. in a water bath and then filtered over GF/C filters (Perkin Elmer, 6005174, presoaked in 0.5% PEI for 2 h at room temperature) with a Filtration unit (Perkin Elmer). The radioactivity retained on the filters was measured by using the TopCount-NXT reader (Packard). Competition curves were obtained for compounds of the invention and the concentrations of compounds which displaced 50% of bound radioligand (IC50) were determined and then apparent inhibition constant Ki values were calculated by the following equation: Ki=IC50/(1+[L]/KD) where [L] is the concentration of free radioligand and KD is its dissociation constant at the receptor, derived from saturation binding experiments (Cheng and Prusoff, 1973).

The test system of series [5] is plasma protein. The series can be described thus: Determination of plasma protein binding (rapid equilibrium dialysis). Conditions: 4 hours at 37° C. The format is in vitro ADME. An excerpt: Determination of Plasma Protein Binding
The pharmacokinetic and pharmacodynamic properties of chemicals/drugs are largely a function of the reversible binding of chemicals to plasma or serum proteins. Generally, only the unbound or “free fraction” of a drug is available for diffusion or transport across cell membranes, and for interaction with a pharmacological/toxicological target. Consequently, the extent of the plasma protein binding (PPB) of a compound influences its action as well as its distribution and elimination.
The determination of plasma protein binding (PPB) of a compound is enabled by equilibrium dialysis, an accepted and standard method for reliable estimation of the non-bound drug fraction in plasma. RED (Rapid Equilibrium Dialysis) device insert is made of two side-by-side chambers separated by an O-ring-sealed vertical cylinder of dialysis membrane (MWCO˜8,000). Plasma containing drug (at 5 μM or blood concentrations otherwise corresponding to efficacious doses, if known) is added to one chamber while buffer is added to the second. After 4 hours incubation at 37° C. under shaking, an aliquot is removed from each chamber and analyzed by a LC-MS/MS procedure enables the determination of both free and bound drug.
The percentages provided in Table 4 represent for the compounds of the invention the bound drug fraction to the plasma protein. The “free fraction” may be calculated as 100%−% rPPB (i.e. the complementary percentage of that disclosed in Table 4, corresponding to the drug concentration that is unbound and therefore available to engage biological target and elicit pharmacological activity).

Where [6] appears, read: CHO cell membranes, 5 nM 3H-SB222200, Table 2, read-out: Competitive binding assay with human NK-3 receptor hNK-3 (Ki).
Setting [7] is: Table 3 (selectivity table), read-out: hNK-3 (Ki).

Structures are written as SMILES. pIC50, pKi: −log10 of the molar value. Where two headings read alike, the source gives them in different places.

human NK-2 receptor, sequence (P21452 whole entry): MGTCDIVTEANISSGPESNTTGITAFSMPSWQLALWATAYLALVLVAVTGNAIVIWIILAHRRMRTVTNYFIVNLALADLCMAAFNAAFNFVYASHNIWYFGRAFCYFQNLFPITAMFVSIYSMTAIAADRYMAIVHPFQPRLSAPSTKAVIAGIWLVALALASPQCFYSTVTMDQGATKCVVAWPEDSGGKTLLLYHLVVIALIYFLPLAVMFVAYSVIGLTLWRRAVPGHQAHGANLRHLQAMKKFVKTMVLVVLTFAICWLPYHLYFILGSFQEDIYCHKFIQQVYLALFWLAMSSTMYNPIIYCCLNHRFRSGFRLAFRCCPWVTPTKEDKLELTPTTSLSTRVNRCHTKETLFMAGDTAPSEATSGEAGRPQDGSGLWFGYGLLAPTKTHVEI
human NK-1 receptor, sequence (P25103 whole entry): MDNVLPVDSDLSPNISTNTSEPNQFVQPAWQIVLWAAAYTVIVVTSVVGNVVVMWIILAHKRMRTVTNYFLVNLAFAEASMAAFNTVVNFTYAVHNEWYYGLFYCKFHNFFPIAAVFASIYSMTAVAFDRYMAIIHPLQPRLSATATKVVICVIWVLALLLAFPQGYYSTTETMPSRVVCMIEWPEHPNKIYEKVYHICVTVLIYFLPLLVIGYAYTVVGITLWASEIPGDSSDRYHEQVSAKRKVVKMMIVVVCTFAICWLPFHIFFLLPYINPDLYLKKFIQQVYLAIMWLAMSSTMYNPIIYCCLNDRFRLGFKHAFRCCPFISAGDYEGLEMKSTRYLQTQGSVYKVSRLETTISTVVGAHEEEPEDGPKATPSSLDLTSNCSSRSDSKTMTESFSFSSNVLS
T1 sequence (P29371 whole entry): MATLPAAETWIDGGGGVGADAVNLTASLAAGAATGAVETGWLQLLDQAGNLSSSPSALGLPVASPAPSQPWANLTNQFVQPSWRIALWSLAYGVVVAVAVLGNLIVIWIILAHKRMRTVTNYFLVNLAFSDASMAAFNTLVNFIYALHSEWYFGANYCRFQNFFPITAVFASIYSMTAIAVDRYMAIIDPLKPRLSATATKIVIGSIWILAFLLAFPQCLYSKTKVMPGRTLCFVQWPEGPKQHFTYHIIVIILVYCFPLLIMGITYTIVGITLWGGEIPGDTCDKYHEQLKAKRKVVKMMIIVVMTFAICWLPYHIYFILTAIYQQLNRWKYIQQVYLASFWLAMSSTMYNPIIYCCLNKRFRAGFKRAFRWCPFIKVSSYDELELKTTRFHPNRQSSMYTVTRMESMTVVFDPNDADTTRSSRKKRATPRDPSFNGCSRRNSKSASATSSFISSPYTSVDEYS

Usually pKi stands for the Ki on a negative log10 scale, so that one unit is a factor of ten. By pIC50 is commonly meant −log10 of the IC50, conventionally taken in molar units. `C[C@@H]1c2nnc(-c3csc(C(F)(F)F)n3)n2CCN1C(=O)c1ccc(Cl)c(F)c1` [Compound 17, (R)-(4-chloro-3-fluorophenyl)(8-methyl-3-(2-(trifluoromethyl)thiazol-4-yl)-5,6-dihydro-[1,2,4]triazolo[4,3-a]pyrazin-7(8H)-yl)methanone]: the pKi is 7.66 in series [1] (setting [6]), 7.66 in series [1] (setting [7]), 5.28 in series [3] and 4.92 in series [4]. Also, in series [2], the pIC50 is 7.43. In addition, the “Exposure (% rPPB), bound drug fraction to the plasma protein” value (“Exposure (% rPPB), bound drug fraction” for short) in series [5] is 84%.
As for `Cc1ccc(-c2nnc3n2CCN(C(=O)c2cc(F)c(F)c(F)c2)[C@@H]3C)o1` [Compound 7, (R)-(8-methyl-3-(5-methylfuran-2-yl)-5,6-dihydro-[1,2,4]triazolo[4,3-a]pyrazin-7(8H)-yl)(3,4,5-trifluorophenyl)methanone], the pKi in series [1] (setting [6]) is 7.48; in series [1] (setting [7]) it was 7.48; in series [3], 4.68; in series [4], 4.57. For the same molecule, the pIC50 in series [2] is 7.24. The “Exposure (% rPPB), bound drug fraction” value in series [5] was 26%.
For `Cc1ccc(-c2nnc3n2CCN(C(=O)c2ccc(F)c(F)c2F)[C@@H]3C)o1` [Compound 6, (R)-(8-methyl-3-(5-methylfuran-2-yl)-5,6-dihydro-[1,2,4]triazolo[4,3-a]pyrazin-7(8H)-yl)(2,3,4-trifluorophenyl)methanone], the pKi in series [1] (setting [6]) is 7.13; in series [1] (setting [7]), 7.13; in series [3] it was less than 4.52; in series [4], less than 4.52. For the same molecule, the pIC50 in series [2] is 7.00. Further, the “Exposure (% rPPB), bound drug fraction” value in series [5] was 37%.
In the case of `C[C@@H]1c2nnc(-c3csc(C(F)(F)F)n3)n2CCN1C(=O)c1cc(F)c(F)c(F)c1F` [Compound 12, (R)-(8-methyl-3-(2-(trifluoromethyl)thiazol-4-yl)-5,6-dihydro-[1,2,4]triazolo[4,3-a]pyrazin-7(8H)-yl)(2,3,4,5-tetrafluorophenyl)methanone], the pKi in series [1] (setting [6]) was 7.54; in series [1] (setting [7]) it was 7.54; in series [3], 5.33; in series [4], 4.72. In addition, the pIC50 in series [2] is 7.48. For the same molecule, in series [5], the “Exposure (% rPPB), bound drug fraction” value is 67%.
`C[C@@H]1c2nnc(-c3csc(C(F)(F)F)n3)n2CCN1C(=O)c1ccc(Cl)cc1` [Compound 18, (R)-(4-chlorophenyl)(8-methyl-3-(2-(trifluoromethyl)thiazol-4-yl)-5,6-dihydro-[1,2,4]triazol[4,3-a]pyrazin-7(8H)-yl)methanone]: the pKi in series [1] (setting [6]) was 7.68; in series [1] (setting [7]), 7.68; in series [3], 5.23; in series [4], 4.82. In series [2], the pIC50 is 7.51. Besides, the “Exposure (% rPPB), bound drug fraction” value in series [5] came to 78%.
On to `Cc1ccc(-c2nnc3n2CCN(C(=O)c2ccc(Cl)cc2)[C@@H]3C)o1` [Compound 10, (R)-(4-chlorophenyl)(8-methyl-3-(5-methylfuran-2-yl)-5,6-dihydro-[1,2,4]triazolo[4,3-a]pyrazin-7(8H)-yl)methanone], for which the pKi is 7.44 in series [1] (setting [6]), 7.44 in series [1] (setting [7]), 4.64 in series [3] and 4.60 in series [4]. For the same molecule, the pIC50 in series [2] was 7.13. The “Exposure (% rPPB), bound drug fraction” value in series [5] was determined as 56%.
In the case of `Cc1nc(-c2nnc3n2CCN(C(=O)c2ccc(F)cc2)[C@@H]3C)cs1` [Compound 2, (R)-(4-fluorophenyl)(8-methyl-3-(2-methylthiazol-4-yl)-5,6-dihydro-[1,2,4]triazolo[4,3-a]pyrazin-7(8H)-yl)methanone], the pKi is 7.00 in series [1] (setting [6]), 7.00 in series [1] (setting [7]), less than 4.52 in series [3] and less than 4.52 in series [4]. Further, the pIC50 in series [2] was 6.80. In addition, the “Exposure (% rPPB), bound drug fraction” value in series [5] was determined as 17%.
In the case of `Cc1ccc(-c2nnc3n2CCN(C(=O)c2ccc(F)c(F)c2)[C@@H]3C)o1` [Compound 5, (R)-(3,4-difluorophenyl)(8-methyl-3-(5-methylfuran-2-yl)-5,6-dihydro-[1,2,4]triazolo[4,3-a]pyrazin-7(8H)-yl)methanone], the pKi in series [1] (setting [6]) is 7.38; in series [1] (setting [7]), 7.38; in series [3], 4.51; in series [4], less than 4.52. Further, the pIC50 in series [2] was 7.28. Further, the “Exposure (% rPPB), bound drug fraction” value in series [5] was 27%.
For the molecule `Cc1ccc(-c2nnc3n2CCN(C(=O)c2cc(F)c(F)c(F)c2F)[C@@H]3C)o1` [Compound 4, (R)-(8-methyl-3-(5-methylfuran-2-yl)-5,6-dihydro-[1,2,4]triazolo[4,3-a]pyrazin-7(8H)-yl)(2,3,4,5-tetrafluorophenyl)methanone], the pKi in series [1] (setting [6]) is 7.28; in series [1] (setting [7]), 7.28; in series [3] it was 4.52; in series [4], less than 4.52. The pIC50 in series [2] was 7.14. Further, the “Exposure (% rPPB), bound drug fraction” value in series [5] is listed as 30%.
